{"source": "patent US20130123358A1", "about": "“Metabolic Benefits to Butyrate as a Chronic Diet Supplement” (priority 2009, published 2013)", "key": {"ruminant mammals": {"test_system": "ruminant mammals", "conditions": "intravenous use, including in the form of tributyrin; cited from earlier work"}, "[1]": {"test_system": "class I and class II histone deacetylases (HDACs)", "conditions": "cited from earlier work"}, "[2]": {"test_system": "C57BL/6J mice on high fat diet", "assay": "Energy metabolism and body composition in diet-induced obesity, butyrate started with HFD", "format": "in vivo, mouse", "protocol": "Male C57BL/6J (4 weeks in age) and ob/ob mice (4 weeks in age) were purchased from the Jackson Laboratory (Bar Harbor, Me.). After one week quarantine, the C57BL/6J mice were fed on the high fat diet (HFD, D12331, Research Diets, New Brunswick, N.J.), which contains 58% calories in fat. The ob/ob mice were fed on Chow diet (5001, Lab Diet) that contains 13.4% calories in fat. All of the mice were housed in the animal facility with a 12:12-h light-dark cycle and constant temperature (22-24° C.). The mice were free to access water and diet. All procedures were performed in accordance with National Institute of Health guidelines for the care and use of animals and approved by the Institute Animal Care and Use Committee at the Pennington Biomedical Research Center.\nSodium butyrate was administrated through dietary supplementation. Sodium butyrate (#303410, Sigma) was incorporated into the HFD evenly through blending the diet and sodium butyrate together at 400 rpm in a food processor. Sodium butyrate (50 g) was used in 1 kg diet to reach a dose of 5% w/w. The sodium butyrate containing diet was pelleted and stored in a −20° C. freezer. Trichostatin A (TSA) (T-1052, A.G. Scientific Inc. San Diego, Calif.) was dissolved in DMSO, and diluted in 0.9% saline at 2:98 ratio. The TSA solution (200 ul) was administrated by intra-peritoneal (i.p.) injection to reach a dose of […]. The control mice were administrated with the same volume of vehicle. 50 ml of tributyrin (#113026, Sigma) was incorporated into one kilogram of Chow diet in powder to reach a dose of 5% w/w in mice.\nBody composition was measured using quantitative nuclear magnetic resonance (NMR) as previously described (15). In the test, a conscious and unrestrained mouse was placed in a small tube one at a time and individually tested using a Brucker model mq10 NMR analyzer (Brucker, Canada, Milton ON, Canada). The fat and lean mass were recorded within 1 min. Measurements were made in triplicate for each mouse.\nEnergy expenditure, respiratory exchange ratio (RER), spontaneous physical movement, and food intake were measured simultaneously for each mouse with the Comprehensive Laboratory Animal Monitoring System (Columbus Instruments, Columbus, Ohio) as described previously (15). The temperature in the metabolic chamber was 24° C. The mice were housed individually in the metabolic chamber. After 48 h of adaptation, the data were recorded for all parameters and used in analysis of the energy metabolism.\nButyrate was initially tested for prevention of dietary obesity. In the diet-induced obesity model, the butyrate supplementation started at the beginning of high fat diet (HFD) feeding. The plain HFD was used in the control group. Calorie intake was monitored four times in the first ten weeks. After normalization with body weight, the calorie intake was reduced with the increase in age.\nEnergy expenditure was examined in C57BL/6J mice using the metabolic chamber at the first week and the tenth week on HFD (16 weeks in age). In this study, sodium butyrate was used at 5% w/w in HFD. […] Food intake was monitored daily for 5 days at each time point. Average daily food intake (g) was converted into K calorie and normalized with body weight (kg) and 24 hours. […] FIG. 1E illustrates the body weight of the mice over 16 weeks. FIG. 1F illustrates the body fat content as determined by NMR expressed as a percentage of body weight. FIG. 1G illustrates the body muscle content expressed as a percentage of body weight. […] Feces were collected in the cages during a 24 hr period on HFD at 12 weeks, and the total lipids were extracted and quantified (P>0.05, n=5). […] The frequency of horizontal movement was shown for day and night time at 10 wks on HFD. For FIGS. 1A-1D and 1I, the number of mice was 8 in both the control or butyrate groups. For FIGS. 1E-1G, the number of mice was 10 in both the control or butyrate group. Values given in FIGS. 1A-1I are the mean±SE. *P<0.05, **P<0.001 by Student's t test. […]"}, "[3]": {"conditions": "butyrate 5% w/w in HFD vs control, metabolic chamber, weeks 1 and 10"}, "[4]": {"conditions": "butyrate 5% w/w in HFD, NMR, change during 16 weeks"}}, "data": [{"smiles": "CCCC(=O)[O-].[Na+]", "note": "[sodium butyrate]", "values": [{"measurement": "serum glucose and insulin", "setting": "ruminant mammals", "result": "increase"}, {"measurement": "effect on class I and class II HDACs", "setting": "[1]", "result": "inhibition"}, {"measurement": "toxicity (by food intake and physical activity)", "setting": "[2]; butyrate 5% w/w in HFD", "result": "no toxicity was observed"}, {"measurement": "calorie intake", "setting": "[2]; butyrate 5% w/w in HFD vs HFD control, first ten weeks", "result": "significantly higher at all of the time points"}, {"measurement": "body length (mouse growth)", "setting": "[2]; butyrate 5% w/w in HFD vs control", "result": "identical between the two groups"}, {"measurement": "spontaneous physical activity", "setting": "[2]; butyrate 5% w/w in HFD vs control, 10 wks on HFD, day and night", "result": "not reduced"}, {"measurement": "energy expenditure", "setting": "[2]; [3]", "result": "elevated at the night time"}, {"measurement": "oxygen consumption", "setting": "[2]; [3]", "result": "elevated at the night time"}, {"measurement": "respiratory exchange ratio (RER)", "setting": "[2]; butyrate 5% w/w in HFD vs control, weeks 1 and 10", "result": "reduced during the day and night time"}, {"measurement": "fat content (adiposity)", "setting": "[2]; [4]", "result": "not significantly changed"}, {"measurement": "lean mass", "setting": "[2]; [4]", "result": "not significantly changed"}, {"measurement": "body weight", "setting": "[2]; butyrate 5% w/w in HFD, change during 16 weeks", "result": "not significantly changed"}, {"measurement": "body fat content", "setting": "[2]; butyrate 5% w/w in HFD, without a reduction in food intake", "result": 10, "unit": "%"}, {"measurement": "hepatic steatosis", "setting": "[2]; mice on high fat diet with SB, sixteen weeks", "result": "reduced"}]}]}
